This is an account of results in patent US8778966B2, “Quinolinone derivatives as PARP and tank inhibitors” (Janssen Pharmaceutica, NV, priority 2007, dated 2014).

One data set has as its target T1, TANK-2 enzyme (Homo sapiens, UniProt Q9H2K2).
T1 construct: made in house
T1 sequence (Q9H2K2 1-1166): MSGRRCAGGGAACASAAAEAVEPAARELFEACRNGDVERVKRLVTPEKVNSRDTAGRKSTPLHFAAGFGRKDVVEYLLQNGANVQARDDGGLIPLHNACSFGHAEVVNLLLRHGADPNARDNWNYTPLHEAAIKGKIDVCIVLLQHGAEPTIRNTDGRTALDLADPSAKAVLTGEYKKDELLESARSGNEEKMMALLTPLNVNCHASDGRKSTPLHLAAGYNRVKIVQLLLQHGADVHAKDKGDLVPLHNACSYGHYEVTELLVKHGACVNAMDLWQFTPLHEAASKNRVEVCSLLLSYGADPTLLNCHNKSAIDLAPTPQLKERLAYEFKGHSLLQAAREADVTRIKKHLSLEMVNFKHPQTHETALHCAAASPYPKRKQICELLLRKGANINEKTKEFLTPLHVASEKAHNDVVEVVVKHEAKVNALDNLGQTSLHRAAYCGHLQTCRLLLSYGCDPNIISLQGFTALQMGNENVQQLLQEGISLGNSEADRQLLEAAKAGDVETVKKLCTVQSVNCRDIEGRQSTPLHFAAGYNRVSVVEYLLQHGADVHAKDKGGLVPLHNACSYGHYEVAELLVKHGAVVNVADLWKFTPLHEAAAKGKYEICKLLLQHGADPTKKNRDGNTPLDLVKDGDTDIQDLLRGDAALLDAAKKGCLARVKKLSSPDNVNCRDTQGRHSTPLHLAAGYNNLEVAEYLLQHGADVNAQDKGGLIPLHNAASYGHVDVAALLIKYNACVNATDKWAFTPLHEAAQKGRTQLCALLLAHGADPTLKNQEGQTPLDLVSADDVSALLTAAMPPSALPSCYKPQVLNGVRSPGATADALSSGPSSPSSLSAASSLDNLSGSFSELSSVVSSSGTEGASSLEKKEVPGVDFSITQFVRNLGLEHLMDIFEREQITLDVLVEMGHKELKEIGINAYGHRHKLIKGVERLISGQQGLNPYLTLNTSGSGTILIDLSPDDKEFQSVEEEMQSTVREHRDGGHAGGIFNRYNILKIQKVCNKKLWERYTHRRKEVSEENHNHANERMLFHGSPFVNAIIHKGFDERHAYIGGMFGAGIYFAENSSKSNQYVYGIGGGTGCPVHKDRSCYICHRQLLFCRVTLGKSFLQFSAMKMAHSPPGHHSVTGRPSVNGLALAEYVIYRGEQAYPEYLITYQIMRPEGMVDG
In words: In vitro Scintillation Proximity Assay (SPA) for TANK-2 inhibitory activity. The class given is biochemical. The settings on record: in vitro SPA assay TANK-2 pIC50. Here is the method:
Compounds of the present invention were tested in an in vitro assay based on SPA technology with Ni Flash plates (96 or 384 well). In principle, the assay relies upon SPA technology for the detection of auto-poly(ADP-ribosyl)ation of TANK-2 protein using [^3H]-nicotinamide adenine dinucleotide ([^3H]-NAD^+) as ADP-ribosyl donor.
A stock solution of 100 nM [3H]-NAD^+/NAD (0.1 mCi/ml, supplier: Perkin Elmer) and 0.25 μM NAD (Sigma) was made in assay buffer (60 mM Tris/HCl, pH 7.4; 0.9 mM DTT; 6 mM MgCl2). The TANK-2 enzyme was produced as described in EP1238063. 60 μl of assay buffer, together with 1 μl of compound in DMSO, 20 μl of [^3H]-NAD^+/NAD and 20 μl of TANK-2 enzyme (final concentration 8 μg/ml) was added per well into a 96-well Ni-coated flash plate (Perkin Elmer). After incubation of the mixture for 120 min. at room temperature, the reaction was terminated by adding 60 μl of stopsolution (42.6 mg NAD in 6 ml H2O). The plates were covered with a plate sealer and placed in a TopCountNXT™ (Packard) for scintillation counting. Values were expressed as counts per minute (cpm). For each experiment, controls (containing TANK-2 enzyme and DMSO without compound), a blank incubation (containing DMSO but no TANK-2 enzyme or compound) and samples (containing TANK-2 enzyme and compound dissolved in DMSO) were run in parallel. All compounds tested were dissolved and eventually further diluted in DMSO. In first instance, compounds were tested at a concentration of 10^−5M. […] In each test, the blank value was subtracted from both the control and the sample values. The control sample represented maximal TANK-2 enzyme activity. For each sample, the amount of cpm was expressed as a percentage of the mean cpm value of the controls. When appropriate, IC50-values (concentration of the drug, needed to reduce the TANK-2 enzyme activity to 50% of the control) were computed using linear interpolation between the experimental points just above and below the 50% level. Herein the effects of test compounds are expressed as pIC50 (the negative log value of the IC50-value). As reference compounds, 3-aminobenzamide and 4-amino-1,8-naphtalimide were included to validate the SPA assay. Herein the assay was described using 96-well plates. In the assay using 384-well plates the same final concentrations were used and volumes were adapted.

The next data set has as its target T2, Human PARP-1 enzyme (Homo sapiens, UniProt P09874).
T2 construct: purchased Trevigen
In words: In vitro Scintillation Proximity Assay (SPA) for PARP-1 inhibitory activity. It is filed as biochemical. The settings on record: read-out: in vitro SPA assay PARP-1 pIC50 (converted). On the procedure:
Compounds of the present invention were tested in an in vitro assay based on SPA technology (proprietary to GE healthcare).
In principle, the assay relies upon the well established SPA technology for the detection of poly(ADP-ribosyl)ation of biotinylated target proteins, i.e histones. This ribosylation is induced using nicked DNA activated PARP-1 enzyme and [^3H]-nicotinamide adenine dinucleotide ([^3H]-NAD^+) as ADP-ribosyl donor.
Histones (type II-A, supplier: Sigma) were biotinylated using the biotinylation kit of Amersham and stored aliquoted at −20° C. A stock solution of 100 mg/ml SPA poly(vinyl toluene) (PVT) beads (supplier: Amersham) was made in PBS. A stock solution of 61.6 nM [^3H]-NAD^+ was made by adding [^3H]-NAD^+ (0.1 mCi/ml, supplier: Perkin Elmer) to incubation buffer (50 mM Tris/HCl, pH 8; 0.2 mM DTT; 4 mM MgCl2). A solution of 4 mM NAD^+ (supplier: Sigma) was made. Human PARP-1 enzyme was obtained from Trevigen. Biotinylated histones and PVT-SPA beads were mixed and pre-incubated for 30 min. at room temperature. PARP-1 enzyme (concentration was lot dependent) was mixed with the nicked DNA and the mixture was pre-incubated for 30 min. at 4° C. Equal parts of this histones/PVT-SPA beads solution and PARP-1 enzyme/DNA solution were mixed and 75 μl of this mixture together with 1 μl of compound in DMSO and 25 μl of [^3H]-NAD^+ was added per well into a 96-well microtiterplate. The final concentrations in the incubation mixture were 2 μg/ml for the biotinylated histones, 2 mg/ml for the PVT-SPA beads, 0.25 μg/ml for the nicked DNA and between 0.1-0.2 μg/ml for the PARP-1 enzyme. After incubation of the mixture for 20 min. at room temperature, the reaction was terminated by adding 100 μl of 4 mM NAD^+ in water (final concentration 2 mM) and plates were mixed. The beads were sedimented by centrifugation (10 min, 800 rpm). and plates transferred to a TopCountNXT™ (Packard) for scintillation counting, values were expressed as counts per minute (cpm). For each experiment, controls (containing PARP-1 enzyme and DMSO without compound), a blank incubation (containing DMSO but no PARP-1 enzyme, no DNA or compound) and samples (containing PARP-1 enzyme, DNA and compound dissolved in DMSO) were run in parallel. All compounds tested were dissolved and eventually further diluted in DMSO. A dose-response curve was made wherein the compounds were tested at concentrations between 10^−5M and 3×10^−9M. In each test, the blank value was subtracted from both the control and the sample values. The control sample represented maximal PARP-1 enzyme activity. For each sample, the amount of cpm was expressed as a percentage of the mean cpm value of the controls. When appropriate, IC50-values (concentration of the drug, needed to reduce the PARP-1 enzyme activity to 50% of the control) were computed using linear interpolation between the experimental points just above and below the 50% level. Herein the effects of test compounds are expressed as pIC50 (the negative log value of the IC50-value). As a reference compound, 4-amino-1,8-naphthalimide was included to validate the SPA assay.

Each structure is given as a SMILES string.

T2 sequence (P09874 whole entry): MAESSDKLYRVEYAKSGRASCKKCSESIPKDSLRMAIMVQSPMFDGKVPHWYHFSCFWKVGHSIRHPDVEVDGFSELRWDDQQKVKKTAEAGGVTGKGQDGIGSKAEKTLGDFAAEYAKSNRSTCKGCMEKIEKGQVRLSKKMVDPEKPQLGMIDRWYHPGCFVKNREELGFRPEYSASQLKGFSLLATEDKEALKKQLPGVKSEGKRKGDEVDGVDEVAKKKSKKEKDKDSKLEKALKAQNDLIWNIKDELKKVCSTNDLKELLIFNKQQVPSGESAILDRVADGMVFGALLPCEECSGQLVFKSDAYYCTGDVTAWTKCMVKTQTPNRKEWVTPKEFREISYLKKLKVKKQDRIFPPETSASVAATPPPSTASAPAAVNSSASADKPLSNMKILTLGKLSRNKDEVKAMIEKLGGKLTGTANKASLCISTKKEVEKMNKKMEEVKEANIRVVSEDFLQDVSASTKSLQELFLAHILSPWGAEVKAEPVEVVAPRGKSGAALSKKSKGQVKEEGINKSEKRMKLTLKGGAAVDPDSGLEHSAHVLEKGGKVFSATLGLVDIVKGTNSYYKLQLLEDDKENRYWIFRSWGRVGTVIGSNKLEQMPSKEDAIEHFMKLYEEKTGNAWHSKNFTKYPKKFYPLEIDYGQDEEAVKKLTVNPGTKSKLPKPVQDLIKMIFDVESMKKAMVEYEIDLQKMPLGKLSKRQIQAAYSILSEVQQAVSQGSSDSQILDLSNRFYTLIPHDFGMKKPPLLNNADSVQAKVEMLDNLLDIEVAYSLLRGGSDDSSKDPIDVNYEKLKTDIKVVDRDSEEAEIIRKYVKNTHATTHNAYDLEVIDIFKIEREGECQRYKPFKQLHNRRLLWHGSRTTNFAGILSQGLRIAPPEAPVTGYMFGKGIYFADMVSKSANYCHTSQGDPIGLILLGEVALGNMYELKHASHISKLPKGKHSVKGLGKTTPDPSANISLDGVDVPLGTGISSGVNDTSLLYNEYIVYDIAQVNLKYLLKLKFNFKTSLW

The compound `CCc1cc2ccc(C(C)(C#N)Cc3nc(C#N)cc(OC)n3)cc2[nH]c1=O` (single isomer, unassigned) [Compound 203] came in with a melting point of 179 °C. Moreover, on TANK-2 enzyme, the IC50 was 79.4 nM. For the same compound, the IC50 at Human PARP-1 enzyme was 50.1 nM.
